From ChEMBL document CHEMBL3593202, “Design, Synthesis, and Characterization of 3-(Benzylidene)indolin-2-one Derivatives as Ligands for α-Synuclein Fibrils” (J Med Chem, 2015) come the findings set out here.

Structures are written as SMILES.

The Ki is a dissociation constant, usually derived from enzyme kinetics or from competition with a known ligand.

For the first test, the target named is Microtubule-associated protein tau (Homo sapiens, UniProt P10636). In words: Displacement of Thio-T from human recombinant tau (243 to 375) expressed in Escherichia coli BL21(DE3)RIL after 1.5 hrs by fluorescence assay.
Microtubule-associated protein tau, sequence (P10636 whole entry): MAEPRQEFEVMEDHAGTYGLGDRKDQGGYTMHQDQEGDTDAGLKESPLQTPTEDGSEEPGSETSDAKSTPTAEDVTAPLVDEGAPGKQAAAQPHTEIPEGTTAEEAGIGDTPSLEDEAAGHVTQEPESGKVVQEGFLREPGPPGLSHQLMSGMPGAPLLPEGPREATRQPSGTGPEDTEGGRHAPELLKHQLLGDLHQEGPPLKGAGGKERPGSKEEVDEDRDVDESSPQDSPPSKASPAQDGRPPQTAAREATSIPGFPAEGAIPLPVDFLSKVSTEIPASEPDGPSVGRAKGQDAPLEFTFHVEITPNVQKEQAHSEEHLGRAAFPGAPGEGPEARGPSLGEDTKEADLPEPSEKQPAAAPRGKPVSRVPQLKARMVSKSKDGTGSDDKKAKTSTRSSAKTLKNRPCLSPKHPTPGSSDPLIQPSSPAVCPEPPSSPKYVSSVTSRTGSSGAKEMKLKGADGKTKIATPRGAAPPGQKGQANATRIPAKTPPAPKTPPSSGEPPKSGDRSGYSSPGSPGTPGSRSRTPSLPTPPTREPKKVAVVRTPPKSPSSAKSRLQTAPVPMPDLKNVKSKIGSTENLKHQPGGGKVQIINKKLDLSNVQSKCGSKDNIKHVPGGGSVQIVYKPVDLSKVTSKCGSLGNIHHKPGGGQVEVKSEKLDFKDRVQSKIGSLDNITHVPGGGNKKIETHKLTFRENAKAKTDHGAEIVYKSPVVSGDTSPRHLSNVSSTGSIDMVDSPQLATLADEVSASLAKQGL
As to `COc1ccc(CN2C(=O)/C(=C\c3ccc(N(C)C)cc3)c3ccccc32)cc1` (mixture of isomers), the inhibitory constant (Ki) came out at 432 nM.
Regarding `CN(C)c1ccc(/C=C2\C(=O)N(c3ccccc3)c3ccccc32)cc1` (mixture of isomers), the Ki worked out at 790 nM.
Same read-out and setting: with `CN(C)c1ccc(/C=C2\C(=O)Nc3ccc(O)cc32)cc1` (mixture of isomers) the figure was 212 nM; with `CN(C)c1ccc(/C=C/C=C2\C(=O)Nc3ncccc32)cc1` (mixture of isomers), 35.1 nM; with `COc1ccc(CN2C(=O)/C(=C\C=C\c3ccc([N+](=O)[O-])cc3)c3ccccc32)cc1`, 72.4 nM.
Same read-out and setting: with `CN(C)c1ccc(/C=C/C=C2\C(=O)N(Cc3ccccc3)c3ccccc32)cc1` (mixture of isomers) the figure was 374 nM; with `COc1ccc(CN2C(=O)/C(=C/C=C/c3ccc([N+](=O)[O-])cc3)c3ccccc32)cc1OC`, 630 nM; with `COc1ccc(CN2C(=O)/C(=C\C=C\c3ccc([N+](=O)[O-])cc3)c3ccccc32)cc1OC`, 152 nM.
On to `CN(C)c1ccc(/C=C2\C(=O)N(Cc3ccccc3)c3ncccc32)cc1` (mixture of isomers), for which the Ki came to 859 nM.
In the case of `CN(C)c1ccc(/C=C/C=C2\C(=O)Nc3ccc(O)cc32)cc1` (mixture of isomers), the inhibition constant Ki stood at 48 nM.
On the same count and under the same terms, as for `CN(C)c1ccc(/C=C/C=C2\C(=O)N(Cc3ccccc3)c3ncccc32)cc1` (mixture of isomers), the figure is 257 nM; as for `O=C1/C(=C/c2ccc([N+](=O)[O-])cc2)c2ccccc2N1Cc1ccccc1`, 1410 nM; as for `COc1ccc(CN2C(=O)/C(=C\C=C\c3ccc(N(C)C)cc3)c3ccccc32)cc1` (mixture of isomers), 240 nM.
In the case of `O=C1/C(=C\C=C\c2ccc([N+](=O)[O-])cc2)c2ccccc2N1Cc1ccccc1`, the Ki was 121 nM.
On to `CN(C)c1ccc(/C=C2\C(=O)N(C)c3ccccc32)cc1` (mixture of isomers), for which the inhibition constant (Ki) was determined as 618 nM.
Same read-out and setting: as for `COc1ccc(CN2C(=O)/C(=C/C=C/c3ccc([N+](=O)[O-])cc3)c3ccccc32)cc1`, the figure is 318 nM.
With `COc1ccc(/C=C/C=C2\C(=O)N(Cc3ccccc3)c3ccccc32)cc1` (mixture of isomers), the Ki worked out at 718 nM.
Regarding `O=C1/C(=C/C=C/c2ccc([N+](=O)[O-])cc2)c2ccccc2N1Cc1ccc(OCCF)cc1`, the inhibition constant Ki stood at 456 nM.
`COc1cccc(CN2C(=O)/C(=C/C=C/c3ccc([N+](=O)[O-])cc3)c3ccccc32)c1`: the Ki amounted to 355 nM.
In the case of `O=C1/C(=C\c2ccc([N+](=O)[O-])cc2)c2ccccc2N1Cc1ccccc1`, the inhibition constant (Ki) was found to be 1760 nM.
As to `CCOC(=O)N1C(=O)/C(=C\C=C\c2ccc(N(C)C)cc2)c2ccccc21` (mixture of isomers), the Ki was 263 nM.
The same measure, in the same setting: with `O=C1Nc2ccccc2/C1=C/C=C/c1ccccc1` (mixture of isomers) the figure was 522 nM; with `CN(C)c1ccc(/C=C/C=C2\C(=O)N(c3ccccc3)c3ccccc32)cc1` (mixture of isomers), 465 nM.

For another test, the target named is Amyloid-beta precursor protein (Homo sapiens, UniProt P05067). In words: Displacement of Thio-T from synthetic amyloid beta (1 to 42) (unknown origin) after 1.5 hrs by fluorescence assay.
Amyloid-beta precursor protein, sequence (P05067 whole entry): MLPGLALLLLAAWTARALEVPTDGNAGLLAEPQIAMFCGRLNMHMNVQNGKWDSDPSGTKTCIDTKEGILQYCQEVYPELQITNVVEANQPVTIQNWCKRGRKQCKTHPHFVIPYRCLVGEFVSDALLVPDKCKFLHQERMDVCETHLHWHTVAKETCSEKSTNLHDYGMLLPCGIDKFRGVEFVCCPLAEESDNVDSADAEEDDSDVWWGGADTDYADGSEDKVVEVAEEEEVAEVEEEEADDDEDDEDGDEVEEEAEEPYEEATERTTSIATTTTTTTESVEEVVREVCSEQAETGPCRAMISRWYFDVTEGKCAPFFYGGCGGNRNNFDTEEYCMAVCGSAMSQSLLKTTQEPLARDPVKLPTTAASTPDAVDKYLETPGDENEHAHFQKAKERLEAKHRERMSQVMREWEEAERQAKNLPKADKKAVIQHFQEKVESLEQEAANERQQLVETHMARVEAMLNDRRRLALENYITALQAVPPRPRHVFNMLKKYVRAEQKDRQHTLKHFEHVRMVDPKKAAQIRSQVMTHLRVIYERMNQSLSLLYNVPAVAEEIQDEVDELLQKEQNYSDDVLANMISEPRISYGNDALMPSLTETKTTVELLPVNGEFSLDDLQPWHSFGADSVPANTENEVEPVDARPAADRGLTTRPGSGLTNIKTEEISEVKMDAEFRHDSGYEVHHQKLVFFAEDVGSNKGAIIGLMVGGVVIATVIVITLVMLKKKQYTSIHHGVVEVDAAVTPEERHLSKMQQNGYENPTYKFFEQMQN
Consider `COc1ccc(CN2C(=O)/C(=C\c3ccc(N(C)C)cc3)c3ccccc32)cc1` (mixture of isomers), for which the Ki is 251 nM.
For `CN(C)c1ccc(/C=C2\C(=O)N(c3ccccc3)c3ccccc32)cc1` (mixture of isomers), the inhibitory constant (Ki) was found to be 179 nM.
In turn, `CN(C)c1ccc(/C=C2\C(=O)Nc3ccc(O)cc32)cc1` (mixture of isomers) yielded a Ki of 94.8 nM.
The same measure, in the same setting: with `CN(C)c1ccc(/C=C/C=C2\C(=O)Nc3ncccc32)cc1` (mixture of isomers) the figure was 15.3 nM; with `COc1ccc(CN2C(=O)/C(=C\C=C\c3ccc([N+](=O)[O-])cc3)c3ccccc32)cc1`, 131 nM; with `CN(C)c1ccc(/C=C/C=C2\C(=O)N(Cc3ccccc3)c3ccccc32)cc1` (mixture of isomers), 358 nM.
The compound `COc1ccc(CN2C(=O)/C(=C/C=C/c3ccc([N+](=O)[O-])cc3)c3ccccc32)cc1OC` gave a Ki of 130 nM.
As for `COc1ccc(CN2C(=O)/C(=C\C=C\c3ccc([N+](=O)[O-])cc3)c3ccccc32)cc1OC`, the inhibitory constant (Ki) is 73.6 nM.
In the case of `CN(C)c1ccc(/C=C2\C(=O)N(Cc3ccccc3)c3ncccc32)cc1` (mixture of isomers), the inhibition constant Ki stood at 190 nM.
Same read-out and setting: with `CN(C)c1ccc(/C=C/C=C2\C(=O)Nc3ccc(O)cc32)cc1` (mixture of isomers) the figure was 37.1 nM; with `CN(C)c1ccc(/C=C/C=C2\C(=O)N(Cc3ccccc3)c3ncccc32)cc1` (mixture of isomers), 85.1 nM; with `O=C1/C(=C/c2ccc([N+](=O)[O-])cc2)c2ccccc2N1Cc1ccccc1`, 695 nM.
The same measure, in the same setting: as for `COc1ccc(CN2C(=O)/C(=C\C=C\c3ccc(N(C)C)cc3)c3ccccc32)cc1` (mixture of isomers), the figure is 130 nM.
Turning to `O=C1/C(=C\C=C\c2ccc([N+](=O)[O-])cc2)c2ccccc2N1Cc1ccccc1`, affinity was put at a Ki of 214 nM.
In the case of `CN(C)c1ccc(/C=C2\C(=O)N(C)c3ccccc32)cc1` (mixture of isomers), the affinity, expressed as Ki, was 155 nM.
On the same count and under the same terms, as for `COc1ccc(CN2C(=O)/C(=C/C=C/c3ccc([N+](=O)[O-])cc3)c3ccccc32)cc1`, the figure is 138 nM; as for `COc1ccc(/C=C/C=C2\C(=O)N(Cc3ccccc3)c3ccccc32)cc1` (mixture of isomers), 741 nM.
Still for that read-out and setting: as for `O=C1/C(=C/C=C/c2ccc([N+](=O)[O-])cc2)c2ccccc2N1Cc1ccc(OCCF)cc1`, the figure is 125 nM; as for `COc1cccc(CN2C(=O)/C(=C/C=C/c3ccc([N+](=O)[O-])cc3)c3ccccc32)c1`, 265 nM; as for `O=C1/C(=C\c2ccc([N+](=O)[O-])cc2)c2ccccc2N1Cc1ccccc1`, 460 nM.
On to `CCOC(=O)N1C(=O)/C(=C\C=C\c2ccc(N(C)C)cc2)c2ccccc21` (mixture of isomers), for which the Ki worked out at 84 nM.
Compound `O=C1Nc2ccccc2/C1=C/C=C/c1ccccc1` (mixture of isomers) had a Ki of 267 nM.
The same measure, in the same setting: as for `CN(C)c1ccc(/C=C/C=C2\C(=O)N(c3ccccc3)c3ccccc32)cc1` (mixture of isomers), the figure is 287 nM.

The target of a further test is Alpha-synuclein (Homo sapiens, UniProt P37840). In words: Displacement of Thio-T from recombinant alpha-synuclein (unknown origin) expressed in Escherichia coli after 1.5 hrs by fluorescence assay.
As for `COc1ccc(CN2C(=O)/C(=C\c3ccc(N(C)C)cc3)c3ccccc32)cc1` (mixture of isomers), the Ki turned out to be 114 nM.
On to `CN(C)c1ccc(/C=C2\C(=O)N(c3ccccc3)c3ccccc32)cc1` (mixture of isomers), for which the inhibition constant Ki came out at 290 nM.
On the same count and under the same terms, as for `CN(C)c1ccc(/C=C2\C(=O)Nc3ccc(O)cc32)cc1` (mixture of isomers), the figure is 407 nM; as for `CN(C)c1ccc(/C=C/C=C2\C(=O)Nc3ncccc32)cc1` (mixture of isomers), 11.5 nM; as for `COc1ccc(CN2C(=O)/C(=C\C=C\c3ccc([N+](=O)[O-])cc3)c3ccccc32)cc1`, 12.9 nM.
With `CN(C)c1ccc(/C=C/C=C2\C(=O)N(Cc3ccccc3)c3ccccc32)cc1` (mixture of isomers), the Ki is 40.9 nM.
On the same count and under the same terms, as for `COc1ccc(CN2C(=O)/C(=C/C=C/c3ccc([N+](=O)[O-])cc3)c3ccccc32)cc1OC`, the figure is 53.3 nM.
Regarding `COc1ccc(CN2C(=O)/C(=C\C=C\c3ccc([N+](=O)[O-])cc3)c3ccccc32)cc1OC`, the Ki was 3.5 nM.
On the same count and under the same terms, with `CN(C)c1ccc(/C=C2\C(=O)N(Cc3ccccc3)c3ncccc32)cc1` (mixture of isomers) the figure was 350 nM.
On the same count and under the same terms, with `CN(C)c1ccc(/C=C/C=C2\C(=O)Nc3ccc(O)cc32)cc1` (mixture of isomers) the figure was 54 nM; with `CN(C)c1ccc(/C=C/C=C2\C(=O)N(Cc3ccccc3)c3ncccc32)cc1` (mixture of isomers), 68.3 nM; with `O=C1/C(=C/c2ccc([N+](=O)[O-])cc2)c2ccccc2N1Cc1ccccc1`, 959 nM.
With `COc1ccc(CN2C(=O)/C(=C\C=C\c3ccc(N(C)C)cc3)c3ccccc32)cc1` (mixture of isomers), the inhibition constant (Ki) stood at 54.6 nM.
Consider `O=C1/C(=C\C=C\c2ccc([N+](=O)[O-])cc2)c2ccccc2N1Cc1ccccc1`, for which the Ki came to 25 nM.
Same read-out and setting: as for `CN(C)c1ccc(/C=C2\C(=O)N(C)c3ccccc32)cc1` (mixture of isomers), the figure is 508 nM.
In the case of `COc1ccc(CN2C(=O)/C(=C/C=C/c3ccc([N+](=O)[O-])cc3)c3ccccc32)cc1`, the inhibition constant (Ki) came out at 81.9 nM.
The same measure, in the same setting: with `COc1ccc(/C=C/C=C2\C(=O)N(Cc3ccccc3)c3ccccc32)cc1` (mixture of isomers) the figure was 72.5 nM; with `O=C1/C(=C/C=C/c2ccc([N+](=O)[O-])cc2)c2ccccc2N1Cc1ccc(OCCF)cc1`, 76.1 nM.
Turning to `COc1cccc(CN2C(=O)/C(=C/C=C/c3ccc([N+](=O)[O-])cc3)c3ccccc32)c1`, the inhibitory constant (Ki) was determined as 64.7 nM.
Still for that read-out and setting: as for `O=C1/C(=C\c2ccc([N+](=O)[O-])cc2)c2ccccc2N1Cc1ccccc1`, the figure is 483 nM; as for `CCOC(=O)N1C(=O)/C(=C\C=C\c2ccc(N(C)C)cc2)c2ccccc21` (mixture of isomers), 45.3 nM; as for `O=C1Nc2ccccc2/C1=C/C=C/c1ccccc1` (mixture of isomers), 207 nM.
The same measure, in the same setting: with `CN(C)c1ccc(/C=C/C=C2\C(=O)N(c3ccccc3)c3ccccc32)cc1` (mixture of isomers) the figure was 68.1 nM.
